Assay results as given in patent US20230365589A1, “NOVEL AMINE DERIVATIVES” (Sumitomo Pharma Co., Ltd., priority 2020, published 2023).
pIC50: −log10 of the molar value. Like-named read-outs stand apart in the source and are kept apart here.

Key:
Assay type in all cases: biochemical
DYRK1A = target: T1, DYRK1A (Homo sapiens, UniProt Q13627); test: Inhibition test on activity of DYRK family, mobility shift assay (MSA): DYRK1A
T1 construct: purchased Carna Biosciences, Inc. 04-130
Procedure: (§1) [Inhibition Test on Activity of DYRK Family (DYRK1A, DYRK1B, DYRK2, and DYRK3)]
(§2) The kinase activity was measured by mobility shift assay (MSA) method using QuickScout Screening Assist™ MSA (commercially available kit manufactured by Carna Biosciences, Inc.). The substrate of the kinase reaction used was an FITC-labeled DYRKtide peptide included in the kit. An assay buffer [20 mM HEPES, 0.01% Triton X-100™, 2 mM dithiothreitol, pH 7.5]was used to create a substrate mixture solution with a substrate (4 μM), MgCl2(20 mM), and ATP (DYRK1A: 100 μM; DYRK1B: 200 μM; DYRK2: 40 μM; and DYRK3: 20 μM). In addition, kinases (DYRK1A: manufactured by Carna Biosciences, Inc., Cat. No. 04-130; DYRK1B: manufactured by Carna Biosciences, Inc., Cat. No. 04-131; DYRK2; manufactured by Carna Biosciences, Inc., Cat. No. 04-132; and DYRK3; manufactured by Carna Biosciences, Inc., Cat. No. 04-133) were diluted with the assay buffer to prepare enzyme solutions (DYRK1A: 0.2 ng/μL; DYRK1B: 0.08 ng/μL; DYRK2: 0.04 ng/μL; and DYRK3: 0.25 ng/μL). The 10 mM solution of the test compound in DMSO was further diluted with DMSO to 10 levels of the concentration (0.00003 mM, 0.0001 mM, 0.0003 mM, 0.001 mM, 0.003 mM, 0.01 mM, 0.03 mM, 0.1 mM, 0.3 mM, and 1 mM), each of which was subjected to 25-fold dilution with the assay buffer to obtain a drug solution (4% DMSO solution). 5 μL of the drug solution or a control solution (4% DMSO-assay buffer), 5 μL of the substrate mixture solution, and 10 μL of the enzyme solution were mixed in the wells of a polypropylene 384-well plate and allowed to react at room temperature for 1 hour, and then the reaction was quenched by adding 60 μL of the termination buffer included in the kit. Subsequently, the quantities of the substrates (S) and the phosphorylated substrate (P) in the reaction solution were measured using LabChip EZ Reader II system (manufactured by Caliper Life Sciences) according to the protocol of the assay kit.
(§3) The heights of the peaks of the “substrate” and the “phosphorylated substrate” were expressed as S and P, respectively, and a blank containing the assay buffer instead of the enzyme solution was also measured.
(§4) The inhibition rate (%) of the test compound was calculated according to the following equation:
(§5) Inhibition rate (%)=(1−(C−A)/(B−A))×100 • wherein, A, B, and C represent P/(P+S) of the blank well, P/(P+S) of the control solution well, and P/(P+S) of the compound-containing well, respectively.
(§6) The IC50 value was calculated via a regression analysis of the inhibition rate and the test compound concentration (logarithmic value).

DYRK2 = target: T2, DYRK2 (Homo sapiens, UniProt Q92630); test: Inhibition test on activity of DYRK family, mobility shift assay (MSA): DYRK2
T2 construct: purchased Carna Biosciences, Inc. 04-132
T2 sequence (Q92630 74-601 limits assumed): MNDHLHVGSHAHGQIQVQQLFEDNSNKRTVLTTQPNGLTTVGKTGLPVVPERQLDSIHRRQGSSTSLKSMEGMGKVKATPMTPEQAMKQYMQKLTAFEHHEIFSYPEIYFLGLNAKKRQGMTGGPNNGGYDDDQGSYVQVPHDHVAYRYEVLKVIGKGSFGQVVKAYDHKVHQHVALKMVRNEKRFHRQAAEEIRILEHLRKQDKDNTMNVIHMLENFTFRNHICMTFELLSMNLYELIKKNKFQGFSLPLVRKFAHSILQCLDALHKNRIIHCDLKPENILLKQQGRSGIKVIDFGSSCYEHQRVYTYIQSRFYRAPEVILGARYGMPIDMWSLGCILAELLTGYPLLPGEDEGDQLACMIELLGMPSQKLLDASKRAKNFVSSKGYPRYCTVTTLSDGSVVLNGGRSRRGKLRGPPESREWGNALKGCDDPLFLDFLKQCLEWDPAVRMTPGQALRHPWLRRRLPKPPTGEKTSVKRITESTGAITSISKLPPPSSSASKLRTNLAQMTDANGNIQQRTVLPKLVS
Procedure: as §1, §2, §3, §4, §5, §6
(§7) The inhibiting activities of representative compounds of the present invention are shown against DYRK1A, DYRK1B, DYRK2, and DYRK3 in Tables.

DYRK3 = target: T3, DYRK3 (Homo sapiens, UniProt O43781); test: Inhibition test on activity of DYRK family, mobility shift assay (MSA): DYRK3
T3 construct: purchased Carna Biosciences, Inc. 04-133
T3 sequence (O43781 1-568 isoform O43781-2): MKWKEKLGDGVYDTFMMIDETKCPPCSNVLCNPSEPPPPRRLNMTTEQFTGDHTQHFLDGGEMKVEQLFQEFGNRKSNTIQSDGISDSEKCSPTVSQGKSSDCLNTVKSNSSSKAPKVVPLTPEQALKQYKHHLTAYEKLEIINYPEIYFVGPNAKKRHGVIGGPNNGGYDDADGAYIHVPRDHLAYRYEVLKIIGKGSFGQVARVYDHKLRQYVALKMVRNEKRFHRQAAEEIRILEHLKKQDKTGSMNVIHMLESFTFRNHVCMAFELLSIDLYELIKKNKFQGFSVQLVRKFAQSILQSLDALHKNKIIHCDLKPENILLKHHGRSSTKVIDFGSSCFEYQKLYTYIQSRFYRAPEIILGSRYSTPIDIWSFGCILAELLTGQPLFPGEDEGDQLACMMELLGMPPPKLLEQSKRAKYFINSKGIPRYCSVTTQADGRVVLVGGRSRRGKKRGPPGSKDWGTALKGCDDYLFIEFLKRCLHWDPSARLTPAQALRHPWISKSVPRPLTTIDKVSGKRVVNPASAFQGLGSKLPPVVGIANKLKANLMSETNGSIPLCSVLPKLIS
Procedure: as §1, §2, §3, §4, §5, §6, §7

[1] = read-out: Inhibitory activity DYRK 1A
[2] = read-out: Inhibitory activity DYRK 2
[3] = read-out: Inhibitory activity DYRK 3
[4] = MSA, FITC-labeled DYRKtide peptide, ATP 100 μM, read-out: Inhibitory activity DYRK 1A (IC50 class)
[5] = MSA, FITC-labeled DYRKtide peptide, ATP 40 μM, read-out: Inhibitory activity DYRK 2 (IC50 class)
[6] = MSA, FITC-labeled DYRKtide peptide, ATP 20 μM, read-out: Inhibitory activity DYRK 3 (IC50 class)

SMILES	pIC50 (DYRK1A; [1])	pIC50 (DYRK2; [2])	pIC50 (DYRK3; [3])	pIC50 (DYRK1A; [4])	pIC50 (DYRK2; [5])	pIC50 (DYRK3; [6])
O=C1N[C@H]2CCN(CC(F)F)C[C@H]2N1c1nc2c3c(ccc2s1)OCC3 (racemic) [Example 108, rac-(3aR,7aS)-5-(2,2-difluoroethyl)-3-(7,8-dihydrofuro[3,2-e][1,3]benzothiazol-2-yl)octahydro-2H-imidazo[4,5-c]pyridin-2-one]	7.00 to 8.00	≤ 6.00	≤ 6.00			
C[C@@H]1NC(=O)N(c2nc3c4c(ccc3s2)OCC4)[C@@H]1CN1CC(F)(F)C1 [Example 116, (4S,5R)-5-[(3,3-difluoroazetidin-1-yl)methyl]-1-(7,8-dihydrofuro[3,2-e][1,3]benzothiazol-2-yl)-4-methylimidazolidin-2-one]	7.00 to 8.00	≤ 6.00	≤ 6.00			
O=C1N[C@H]2CNCCC[C@H]2N1c1nc2c3c(ccc2s1)OCC3 [Example 5]				7.00 to 8.00	6.00 to 7.00	6.00 to 7.00
CN1CCC[C@@H]2[C@H](C1)NC(=O)N2c1nc2c3c(ccc2s1)OCO3 [Example 84]				7.00 to 8.00	6.00 to 7.00	6.00 to 7.00
CC(=O)N1CC[C@@H]2NC(=O)N(c3nc4c5c(ccc4s3)OCC5)[C@@H]2C1 (relative stereo) [Example 20, cis-5-Acetyl-3-(7,8-dihydrofuro[3,2-e][1,3]benzothiazol-2-yl) octahydro-2H-imidazo[4,5-c]pyridin-2-one]				6.00 to 7.00	< 6.00	< 6.00
C[C@H]1[C@@H]2[C@H](CCN1C)NC(=O)N2c1nc2c3c(ccc2s1)OCC3 [Example 94]	6.00 to 7.00	≤ 6.00	≤ 6.00			
CN1CC[C@@H]2[C@H](C1)NC(=O)N2c1nc2c3c(ccc2s1)OCO3 (racemic) [Example 78, rac-(3aR,7aS)-1-(2H-[1,3]dioxolo[4,5-e][1,3]benzothiazol-7-yl)-5-methyloctahydro-2H-imidazo[4,5-c]pyridin-2-one]				7.00 to 8.00	≤ 6.00	6.00 to 7.00
CN1C[C@@H]2[C@H](CC13CC3)NC(=O)N2c1nc2c3c(ccc2s1)OCC3 [Example 90]				7.00 to 8.00	6.00 to 7.00	6.00 to 7.00
N#CCN1CC[C@H]2NC(=O)N(c3nc4c5c(ccc4s3)OCC5)[C@H]2C1 (single isomer, unassigned) [Example 111]	6.00 to 7.00	≤ 6.00	≤ 6.00			
CN1C[C@@H]2NC(=O)N(c3nc4c5c(ccc4s3)OCC5)[C@@H]2CC12CC2 [Example 89]				6.00 to 7.00	≤ 6.00	≤ 6.00
O=C1N[C@H]2CNC3(CC3)C[C@H]2N1c1nc2c3c(ccc2s1)OCC3 [Example 56]				6.00 to 7.00	≤ 6.00	6.00 to 7.00
O=C1N[C@H]2CCN(C3CC3)C[C@H]2N1c1nc2c3c(ccc2s1)OCC3 (racemic) [Example 98, rac-(3aR,7aS)-5-cyclopropyl-3-(7,8-dihydrofuro[3,2-e][1,3]benzothiazol-2-yl)octahydro-2H-imidazo[4,5-c]pyridin-2-one]	> 8.00	≤ 6.00	≤ 6.00			
CN1CCC[C@@H]2NC(=O)N(c3nc4c5c(ccc4s3)OCO5)[C@@H]2C1 (racemic) [Example 85, rac-(3aR,8aS)-3-(2H-[1,3]dioxolo[4,5-e][1,3]benzothiazol-7-yl)-5-methyloctahydroimidazo[4,5-c]azepin-2(1H)-one]				7.00 to 8.00	≤ 6.00	≤ 6.00
C[C@H]1C[C@H]2NC(=O)N(c3nc4c5c(ccc4s3)OCC5)C2CN1C (stereo partly drawn) [Example 92]	6.00 to 7.00	≤ 6.00	≤ 6.00			

Other lines, results leading:

pIC50 (DYRK1A; [1])	pIC50 (DYRK2; [2])	pIC50 (DYRK3; [3])	pIC50 (DYRK1A; [4])	pIC50 (DYRK2; [5])	pIC50 (DYRK3; [6])	SMILES
≤ 6.00	≤ 6.00	≤ 6.00				CC1(C)C[C@H]2[C@@H](CO1)NC(=O)N2c1nc2c3c(ccc2s1)OCC3 [Example 123]
			> 8.00	≤ 6.00	6.00 to 7.00	C#C[C@H]1C[C@@H]2[C@H](CO1)NC(=O)N2c1nc2c3c(ccc2s1)OCC3 [Example 149, (3aR,6R,7aR)-1-(7,8-dihydrofuro[3,2-e][1,3]benzothiazol-2-yl)-6-ethynylhexahydropyrano[3,4-d]imidazol-2(3H)-one]
			≤ 6.00	≤ 6.00	≤ 6.00	O=C1N[C@@H]2CO[C@H](CO)[C@@H]2N1c1nc2c3c(ccc2s1)OCC3 [Example 154]
			7.00 to 8.00	6.00 to 7.00	6.00 to 7.00	O=C1N[C@@H]2[C@@H](CO[C@@H]2CO)N1c1nc2c3c(ccc2s1)OCC3 [Example 153]
			> 8.00	≤ 6.00	6.00 to 7.00	O=C1N[C@H]2CO[C@@H](CO)C[C@H]2N1c1nc2c3c(ccc2s1)OCC3 [Example 144, (3aR,6R,7aR)-1-(7,8-dihydrofuro[3,2-e][1,3]benzothiazol-2-yl)-6-(hydroxymethyl)hexahydropyrano[3,4-d]imidazol-2(3H)-one]
			> 8.00	≤ 6.00	6.00 to 7.00	O=C1N[C@H]2CO[C@@H](CO)C[C@H]2N1c1nc2c3c(ccc2s1)OCO3 [Example 147, (3aR,6R,7aR)-1-(2H-[1,3]dioxolo[4,5-e][1,3]benzothiazol-7-yl)-6-(hydroxymethyl)hexahydropyrano[3,4-d]imidazol-2(3H)-one]
7.00 to 8.00	6.00 to 7.00	6.00 to 7.00				O=C1N[C@H]2CCOC[C@H]2N1c1nc2c3c(ccc2s1)OCC3 (racemic) [Example 120, rac-(3aR,7aR)-3-(7,8-dihydrofuro[3,2-e][1,3]benzothiazol-2-yl)hexahydropyrano[3,4-d]imidazol-2(3H)-one]
≤ 6.00	≤ 6.00	≤ 6.00				N#C[C@H]1C[C@H]2NC(=O)N(c3nc4c5c(ccc4s3)OCO5)[C@H]2CO1 [Example 132]
